{"source": "patent US9688681B2", "about": "“Heterocyclic compounds as pest control agents” (BAYER CROPSCIENCE AKTIENGESELLSCHAFT, priority 2013, dated 2017)", "key": {"[1]": {"tested_on": "green peach aphid (Myzus persicae)", "assay": "Myzus persicae spray test on Chinese cabbage leaf discs", "type": "in vivo", "conditions": "application rate 500 g/ha, after 6 days", "from_the_text": "Discs of Chinese cabbage leaves (Brassica pekinensis) infested by all stages of the green peach aphid (Myzus persicae) are sprayed with an active ingredient formulation of the desired concentration."}, "[2]": {"tested_on": "southern root-knot nematode (Meloidogyne incognita)", "conditions": "application rate 20 ppm, after 14 days, lettuce in sand", "protocol": "Meloidogvne incognita Test (MELGIN)\nSolvent: 125.0 parts by weight of acetone\nTo produce an appropriate active ingredient formulation, 1 part by weight of active ingredient is mixed with the specified amounts of solvent and the concentrate is diluted to the desired concentration with water.\nVessels are filled with sand, active ingredient solution, an egg/larvae suspension of the southern root-knot nematode (Meloidogyne incognita) and lettuce seeds. The lettuce seeds germinate and the plants develop.\nAfter 14 days, the nematicidal efficacy in % is determined by the formation of galls."}, "[3]": {"assay": "log P by HPLC on reversed-phase C18 columns (OECD Guideline 117)", "type": "physicochemical", "conditions": "HPLC RP C18, acidic range pH 2.7, 0.1% aqueous formic acid/acetonitrile"}}, "data": [{"compound": "O=c1c2cn(-c3cccnc3)nc2ncn1-c1ccc(Cl)cc1", "note": "[compound 14]", "values": [{"measurement": "efficacy (aphids killed)", "setting": "[1]", "value": 90, "unit": "%"}, {"measurement": "nematicidal efficacy (formation of galls)", "setting": "[2]", "value": 100, "unit": "%"}, {"measurement": "logP[a]", "setting": "[3]", "value": 1.74}]}]}
